Measurements as given in US9540350B2, “1-substituted, 4-(substituted phenoxymethyl)-1,2,3-triazole compounds with antifungal properties and methods for preparation thereof” (FDC LIMITED, priority 2013, dated 2017).
Converted amounts (≈) assume the structure as drawn. Read-outs that look alike come from different tables or passages of the source.

Legend:
C. albicans ATCC 24433 = experiment: Antifungal susceptibility, broth dilution MIC (CLSI M27-A2); format: cell-based; details: Candida albicans, read-out: Activity against organisms (MIC50) Ca01
Method: (§1) The compounds of Formula 1 were tested for antifungal activity against Candida albicans, C. glabrata, C. krusei, C. tropicalis, Cryptococcus neoformans, Aspergillus fumigatus, A. niger and Fusarium proliferatum. In vitro evaluation of antifungal activity was performed by determining the minimum inhibitory concentration (MIC) following standard methods (CLSI: Reference method for broth dilution antifungal susceptibility testing of yeasts; Approved standard, second edition M27-A2, 2002; CLSI: Reference method for broth dilution antifungal susceptibility testing of filamentous fungi; Approved standard M38-A, 2002). Anti-fungal susceptibility testing of these anti-fungal compounds was done by broth dilution method using RPMI 1640 medium with MOPS buffer. Known anti-fungal agent fluconazole was used as positive control. End points were determined after 48 hours visually and by using spectrophotometer wherever necessary. Different dilutions were tried and various sets of experiments performed. The activity parameters are enumerated in Table 4.

C. glabrata ATCC 90030 = experiment: as above; format: cell-based, Candida glabrata; details: Nakaseomyces glabratus, read-out: Activity against organisms (MIC50) Cg01
Method: as §1

C. krusei ATCC 6258 = experiment: as above; format: cell-based, Candida krusei; details: Pichia kudriavzevii, read-out: Activity against organisms (MIC50) Ck01
Method: as §1

C. tropicalis ATCC 750 = experiment: as above; format: cell-based, Candida tropicalis; details: Candida tropicalis, read-out: Activity against organisms (MIC50) Ct01
Method: as §1

C. neoformans ATCC 34664 = experiment: as above; format: cell-based, Cryptococcus neoformans; details: Cryptococcus neoformans, read-out: Activity against organisms (MIC50) Cn01
Method: as §1

A. fumigatus ATCC 46645 = experiment: Antifungal susceptibility, broth dilution MIC (CLSI M38-A); format: cell-based; details: Aspergillus fumigatus, read-out: Activity against organisms (MIC50) Afm01
Method: as §1

A. niger ATCC 16404 = experiment: as above; format: cell-based; details: Aspergillus niger, read-out: Activity against organisms (MIC50) An01
Method: as §1

[1] = tested on: F. proliferatum ATCC 10052; experiment: as above; format: cell-based; details: Fusarium proliferatum, read-out: Activity against organisms (MIC50) Fp01
Method: as §1

[2] = ATCC24433, C. albicans ATCC 24433, broth dilution, RPMI 1640 with MOPS, 48 hours
[3] = ATCC90030, C. glabrata ATCC 90030, broth dilution, RPMI 1640 with MOPS, 48 hours
[4] = ATCC6258, C. krusei ATCC 6258, broth dilution, RPMI 1640 with MOPS, 48 hours
[5] = ATCC750, C. tropicalis ATCC 750, broth dilution, RPMI 1640 with MOPS, 48 hours
[6] = ATCC34664, C. neoformans ATCC 34664, broth dilution, RPMI 1640 with MOPS, 48 hours
[7] = ATCC46645, A. fumigatus ATCC 46645, broth dilution, RPMI 1640 with MOPS, 48 hours
[8] = ATCC16404, A. niger ATCC 16404, broth dilution, RPMI 1640 with MOPS, 48 hours
[9] = ATCC10052, F. proliferatum ATCC 10052, broth dilution, RPMI 1640 with MOPS, 48 hours

Structure (SMILES)	MIC50 (C. albicans ATCC 24433; [2])	MIC50 (C. glabrata ATCC 90030; [3])	MIC50 (C. krusei ATCC 6258; [4])	MIC50 (C. tropicalis ATCC 750; [5])	MIC50 (C. neoformans ATCC 34664; [6])	MIC50 (A. fumigatus ATCC 46645; [7])	MIC50 (A. niger ATCC 16404; [8])	MIC50 [1, 9]	MIC50 (C. albicans ATCC 24433; ATCC24433, 48 h)	MIC50 (C. glabrata ATCC 90030; ATCC90030, 48 h)	MIC50 (C. krusei ATCC 6258; ATCC6258, 48 h)	MIC50 (C. tropicalis ATCC 750; ATCC750, 48 h)	MIC50 (C. neoformans ATCC 34664; ATCC34664, 48 h)	MIC50 (A. fumigatus ATCC 46645; ATCC46645, 48 h)	MIC50 (A. niger ATCC 16404; ATCC16404, 48 h)	MIC50 ([1]; ATCC10052, 48 h)
COc1ccc(/C=C/C(=O)c2ccc(OCc3cn(CC(O)(Cn4cncn4)c4ccc(F)cc4F)nn3)cc2)cc1 (centres unmarked) [Compound 1A-2, (E)-1-(4-((1-(2-(2,4-Difluorophenyl)-2-hydroxy-3-(1H-1,2,4-triazol-1-yl)propyl)-1H-1,2,3-triazol-4-yl)methoxy)phenyl)-3-(4-methoxyphenyl)prop-2-en-1-one]	0.25 µg/mL (≈ 0.437 µM)	1 µg/mL (≈ 1.75 µM)	8 µg/mL (≈ 14 µM)	2 µg/mL (≈ 3.49 µM)	1 µg/mL (≈ 1.75 µM)	> 4 µg/mL	> 4 µg/mL	> 4 µg/mL	–	–	–	–	–	–	–	–
CC(=O)/C=C/c1ccc(OCc2cn(CC(O)(Cn3cncn3)c3ccc(F)cc3F)nn2)cc1 (centres unmarked) [Compound 1B-3, (E)-4-(4-((1-(2-(2,4-Difluorophenyl)-2-hydroxy-3-(1H-1,2,4-triazol-1-yl)propyl)-1H-1,2,3-triazol-4-yl)methoxy)phenyl)but-3-en-2-one]	–	–	–	–	–	–	–	–	0.12 µg/mL (≈ 0.25 µM)	0.5 µg/mL (≈ 1.04 µM)	16 µg/mL (≈ 33.3 µM)	1 µg/mL (≈ 2.08 µM)	2 µg/mL (≈ 4.16 µM)	> 64 µg/mL	> 64 µg/mL	> 64 µg/mL
O=C(/C=C/c1ccc(OCc2cn(CC(O)(Cn3cncn3)c3ccc(F)cc3F)nn2)cc1)C1CC1 (centres unmarked) [Compound 1B-4, (E)-1-(Cyclopropyl)-3-(4-((1-(2-(2,4-difluorophenyl)-2-hydroxy-3-(1H-1,2,4-triazol-1-yl)propyl)-1H-1,2,3-triazol-4-yl)methoxy)phenyl)prop-2-en-1-one]	0.12 µg/mL (≈ 0.237 µM)	0.5 µg/mL (≈ 0.987 µM)	> 32 µg/mL	2 µg/mL (≈ 3.95 µM)	1 µg/mL (≈ 1.97 µM)	> 32 µg/mL	> 32 µg/mL	> 32 µg/mL	–	–	–	–	–	–	–	–
CCCN1CCN(c2ccc(C(=O)/C=C/c3ccc(OCc4cn(CC(O)(Cn5cncn5)c5ccc(F)cc5F)nn4)cc3)cc2)CC1 (centres unmarked) [Compound 1B-5, (E)-3-(4-((1-(2-(2,4-Difluorophenyl)-2-hydroxy-3-(1H-1,2,4-triazol-1-yl)propyl)-1H-1,2,3-triazol-4-yl)methoxy)phenyl)-1-(4-(4-propylpiperazin-1-yl)phenyl)prop-2-en-1-one]	0.06 µg/mL (≈ 0.0897 µM)	0.5 µg/mL (≈ 0.748 µM)	> 4 µg/mL	0.5 µg/mL (≈ 0.748 µM)	1 µg/mL (≈ 1.5 µM)	> 4 µg/mL	> 4 µg/mL	> 4 µg/mL	–	–	–	–	–	–	–	–
CCCCN1CCN(c2ccc(C(=O)/C=C/c3ccc(OCc4cn(CC(O)(Cn5cncn5)c5ccc(F)cc5F)nn4)cc3)cc2)CC1 (centres unmarked) [Compound 1B-6, (E)-1-(4-(4-n-Butylpiperazin-1-yl)phenyl)-3-(4-((1-(2-(2,4-difluorophehyl)-2-hydroxy-3-(1H-1,2,4-triazol-1-yl)propyl)-1H-1,2,3-triazol-4-yl)methoxy)phenyl)prop-2-en-1-one]	0.12 µg/mL (≈ 0.176 µM)	0.5 µg/mL (≈ 0.732 µM)	> 4 µg/mL	0.5 µg/mL (≈ 0.732 µM)	1 µg/mL (≈ 1.46 µM)	> 4 µg/mL	> 4 µg/mL	> 4 µg/mL	–	–	–	–	–	–	–	–
CCCCCN1CCN(c2ccc(C(=O)/C=C/c3ccc(OCc4cn(CC(O)(Cn5cncn5)c5ccc(F)cc5F)nn4)cc3)cc2)CC1 (centres unmarked) [Compound 1B-7, (E)-3-(4-((1-(2-(2,4-Difluorophenyl)-2-hydroxy-3-(1H-1,2,4-triazol-1-yl)propyl)-1H-1,2,3-triazol-4-yl)methoxy)phenyl)-1-(4-(4-n-pentylpiperazin-1-yl)phenyl)-prop-2-en-1-one]	0.5 µg/mL (≈ 0.718 µM)	0.5 µg/mL (≈ 0.718 µM)	8 µg/mL (≈ 11.5 µM)	2 µg/mL (≈ 2.87 µM)	2 µg/mL (≈ 2.87 µM)	> 2 µg/mL	> 2 µg/mL	> 2 µg/mL	–	–	–	–	–	–	–	–
COc1ccc(CN2CCN(c3ccc(C(=O)/C=C/c4ccc(OCc5cn(CC(O)(Cn6cncn6)c6ccc(F)cc6F)nn5)cc4)cc3)CC2)cc1 (centres unmarked) [Compound 1B-8, (E)-3-(4-((1-(2-(2,4-Difluorophenyl)-2-hydroxy-3-(1H-1,2,4-triazol-1-yl)propyl)-1H-1,2,3-triazol-4-yl)methoxy)phenyl)-1-(4-(4-(4-methoxybenzyl)piperazin-1-yl)phenyl)prop-2-en-1-one]	0.12 µg/mL (≈ 0.161 µM)	0.12 µg/mL (≈ 0.161 µM)	2 µg/mL (≈ 2.68 µM)	0.5 µg/mL (≈ 0.67 µM)	0.5 µg/mL (≈ 0.67 µM)	> 8 µg/mL	> 8 µg/mL	> 8 µg/mL	–	–	–	–	–	–	–	–
C=C=CCOc1ccc(/C=C/C(=O)/C=C/c2ccc(OCc3cn(CC(O)(Cn4cncn4)c4ccc(F)cc4F)nn3)cc2)cc1 (centres unmarked) [Compound 1B-9, (1E,4E)-1-(4-(Buta-2,3-dienyloxy)phenyl)-5-(4-((1-(2-(2,4-difluorophenyl)-2-hydroxy-3-(1H-1,2,4-triazol-1-yl)propyl)-1H-1,2,3-triazol-4-yl)methoxy)phenyl)penta-1,4-dien-3-one]	0.25 µg/mL (≈ 0.393 µM)	0.5 µg/mL (≈ 0.785 µM)	2 µg/mL (≈ 3.14 µM)	1 µg/mL (≈ 1.57 µM)	0.25 µg/mL (≈ 0.393 µM)	> 2 µg/mL	> 2 µg/mL	> 2 µg/mL	–	–	–	–	–	–	–	–

More lines, main results first:

MIC50 (C. albicans ATCC 24433; [2])	MIC50 (C. glabrata ATCC 90030; [3])	MIC50 (C. krusei ATCC 6258; [4])	MIC50 (C. tropicalis ATCC 750; [5])	MIC50 (C. neoformans ATCC 34664; [6])	MIC50 (A. fumigatus ATCC 46645; [7])	MIC50 (A. niger ATCC 16404; [8])	MIC50 [1, 9]	Structure (SMILES)	MIC50 (C. albicans ATCC 24433; ATCC24433, 48 h)	MIC50 (C. glabrata ATCC 90030; ATCC90030, 48 h)	MIC50 (C. krusei ATCC 6258; ATCC6258, 48 h)	MIC50 (C. tropicalis ATCC 750; ATCC750, 48 h)	MIC50 (C. neoformans ATCC 34664; ATCC34664, 48 h)	MIC50 (A. fumigatus ATCC 46645; ATCC46645, 48 h)	MIC50 (A. niger ATCC 16404; ATCC16404, 48 h)	MIC50 ([1]; ATCC10052, 48 h)
0.12 µg/mL (≈ 0.221 µM)	0.12 µg/mL (≈ 0.221 µM)	4 µg/mL (≈ 7.37 µM)	1 µg/mL (≈ 1.84 µM)	0.5 µg/mL (≈ 0.922 µM)	> 8 µg/mL	> 8 µg/mL	> 8 µg/mL	O=C(/C=C/c1ccccc1)c1ccc(OCc2cn(CC(O)(Cn3cncn3)c3ccc(F)cc3F)nn2)cc1 (centres unmarked) [Compound 1A-1, (E)-1-(4-((1-(2-(2,4-Difluorophenyl)-2-hydroxy-3-(1H-1,2,4-triazol-1-yl)propyl)-1H-1,2,3-triazol-4-yl)methoxy)phenyl)-3-phenylprop-2-en-1-one]	–	–	–	–	–	–	–	–
0.25 µg/mL (≈ 0.449 µM)	0.25 µg/mL (≈ 0.449 µM)	4 µg/mL (≈ 7.19 µM)	2 µg/mL (≈ 3.59 µM)	0.5 µg/mL (≈ 0.898 µM)	> 4 µg/mL	> 4 µg/mL	> 4 µg/mL	Cc1ccc(/C=C/C(=O)c2ccc(OCc3cn(CC(O)(Cn4cncn4)c4ccc(F)cc4F)nn3)cc2)cc1 (centres unmarked) [Compound 1A-3, (E)-1-(4-((1-(2-(2,4-Difluorophenyl)-2-hydroxy-3-(1H-1,2,4-triazol-1-yl)propyl)-1H-1,2,3-triazol-4-yl)methoxy)phenyl)-3-(4-methylphenyl)prop-2-en-1-one]	–	–	–	–	–	–	–	–
0.12 µg/mL (≈ 0.219 µM)	0.5 µg/mL (≈ 0.911 µM)	4 µg/mL (≈ 7.29 µM)	1 µg/mL (≈ 1.82 µM)	0.5 µg/mL (≈ 0.911 µM)	> 8 µg/mL	> 8 µg/mL	> 8 µg/mL	O=C(/C=C/c1cccs1)c1ccc(OCc2cn(CC(O)(Cn3cncn3)c3ccc(F)cc3F)nn2)cc1 (centres unmarked) [Compound 1A-4, (E)-1-(4-((1-(2-(2,4-Difluorophenyl)-2-hydroxy-3-(1H-1,2,4-triazol-1-yl)propyl)-1H-1,2,3-triazol-4-yl)methoxy)phenyl)-3-(2-thienyl)prop-2-en-1-one]	–	–	–	–	–	–	–	–
0.12 µg/mL (≈ 0.21 µM)	0.5 µg/mL (≈ 0.873 µM)	4 µg/mL (≈ 6.99 µM)	1 µg/mL (≈ 1.75 µM)	1 µg/mL (≈ 1.75 µM)	> 4 µg/mL	> 4 µg/mL	> 4 µg/mL	COc1ccc(C(=O)/C=C/c2ccc(OCc3cn(CC(O)(Cn4cncn4)c4ccc(F)cc4F)nn3)cc2)cc1 (centres unmarked) [Compound 1B-1]	–	–	–	–	–	–	–	–
0.06 µg/mL (≈ 0.107 µM)	0.5 µg/mL (≈ 0.892 µM)	4 µg/mL (≈ 7.14 µM)	2 µg/mL (≈ 3.57 µM)	0.25 µg/mL (≈ 0.446 µM)	> 4 µg/mL	> 4 µg/mL	> 4 µg/mL	O=C(/C=C/c1ccc(OCc2cn(CC(O)(Cn3cncn3)c3ccc(F)cc3F)nn2)cc1)c1ccc(F)cc1 (centres unmarked) [Compound 1B-2, (E)-3-(4-((1-(2-(2,4-Difluorophenyl)-2-hydroxy-3-(1H-1,2,4-triazol-1-yl)propyl)-1H-1,2,3-triazol-4-yl)methoxy)phenyl)-1-(4-fluorophenyl)prop-2-en-1-one]	–	–	–	–	–	–	–	–
